Source: patent US20130211249A1, “DRUG ELUTING HYDROGELS FOR CATHETER DELIVERY” (The Johns Hopkins University, priority 2010, published 2013)

Tests used:
[1] = doxorubicin release from glucomannan alginate blends (dialysis, absorbance at 485 nm); assay type: physicochemical; details: from sulfonated glucomannan calcium alginate blend; Hepes Buffered Saline with 30% FBS, 37° C., pH 7.4; n=10
[2] = dissolution of self-gelling alginate gel by alginate lyase; assay type: biochemical; details: 0.5 mL of alginate lyase added to 5 mL gel (1.5% calcium alginate, 1% sodium alginate) after 1 hour gelling
Text: In embodiments, a self-gelling alginate can be modified to contain an optical agent to assess localization. For example, the FDA approved optical agent inodcyanine green has used at a concentration of 0.005% to assess localization after injection with infrared. Gels can be made by mixing a solution of sodium alginate (Protanal SF 120) and a calcium alginate dispersion (Protaweld TX 120). The amount of calcium alginate can be 1.5%, and the amount of sodium alginate can be 1%. The solution and dispersion are mixed and 5 mL of the gel injected into a 50 mL conical tube. The sample was left to gel for 1 hour.

doxorubicin release profile [1]	dissolution of hardened alginate gel [2]	Molecule
eight		COc1cccc2c1C(=O)c1c(O)c3c(c(O)c1C2=O)C[C@@](O)(C(=O)CO)C[C@@H]3O[C@H]1C[C@H](N)[C@H](O)[C@H](C)O1 [doxorubicin]
	complete dissolution	alginate lyase: enzymes that catalyze the degradation of alginate (protein, listed as Pseudomonas aeruginosa) MKTSHLIRIALPGALAAALLASQVSQAADLVPPPGYYAAVGERKGSAGSCPAVPPPYTGSLVFTSKYEGSDSARATLNVKAEKTFRSQIKDITDMERGATKLVTQYMRSGRDGDLACALNWMSAWARAGALQSDDFNHTGKSMRKWALGSLSGAYMRLKFSSSRPLAAHAEQSREIEDWFARLGTQVVRDWSGLPLKKINNHSYWAAWSVMSTAVVTNRRDLFDWAVSEFKVAANQVDEQGFLPNELKRRQRALAYHNYALPPLAMIAPFAQVNGVDLRQENHGALQRLAERVMKGVDDEETFEEKTGEDQDMTDLKVDNKYAWLEPYCALYRCEPNACSRPKKDREPFNSFRLGGEVTRVFSREGGS
